Reference: the supplement of paper PMC11451515

Tested on: NOMO1
Assay: cell viability relative to DMSO control; higher = less cytotoxic
Settings: 48 h
Outline: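 Viability, reported as a per-plate percentage of DMSO wells with cell-free wells as background, came from CellTiter-Glo One luminescence. Reading took place after 48 h at 37°C. Before that, NOMO1 or SEM (500 cells/well) or P12-Ichikawa (1000 cells/well) leukemia cells, adapted for at least four passages in each medium, were seeded in 1536-well plates (5 μl) and pin-dosed with library compounds in DMSO, 47 μM to 0.79 nM over 11 threefold points.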

[1] = RPMI 5 mM glucose + 10% FBS, 0.000781 µM
[2] = RPMI 5 mM glucose + 10% FBS, 0.00234 µM
[3] = RPMI 5 mM glucose + 10% FBS, 0.00702 µM
[4] = RPMI 5 mM glucose + 10% FBS, 0.0211 µM
[5] = RPMI 5 mM glucose + 10% FBS, 0.0632 µM
[6] = RPMI 5 mM glucose + 10% FBS, 0.19 µM
[7] = RPMI 5 mM glucose + 10% FBS, 0.569 µM
[8] = RPMI 5 mM glucose + 10% FBS, 1.71 µM
[9] = RPMI 5 mM glucose + 10% FBS, 5.12 µM
[10] = RPMI 5 mM glucose + 10% FBS, 15.4 µM
[11] = RPMI 5 mM glucose + 10% FBS, 46.1 µM
[12] = HPLM + 10% dialyzed FBS, 0.000781 µM
[13] = HPLM + 10% dialyzed FBS, 0.00234 µM
[14] = HPLM + 10% dialyzed FBS, 0.00702 µM
[15] = HPLM + 10% dialyzed FBS, 0.0211 µM
[16] = HPLM + 10% dialyzed FBS, 0.0632 µM
[17] = HPLM + 10% dialyzed FBS, 0.19 µM
[18] = HPLM + 10% dialyzed FBS, 0.569 µM
[19] = HPLM + 10% dialyzed FBS, 1.71 µM
[20] = HPLM + 10% dialyzed FBS, 5.12 µM
[21] = HPLM + 10% dialyzed FBS, 15.4 µM
[22] = HPLM + 10% dialyzed FBS, 46.1 µM
[23] = RPMI 5 mM glucose + 10% dialyzed FBS, 0.000781 µM
[24] = RPMI 5 mM glucose + 10% dialyzed FBS, 0.00234 µM
[25] = RPMI 5 mM glucose + 10% dialyzed FBS, 0.00702 µM
[26] = RPMI 5 mM glucose + 10% dialyzed FBS, 0.0211 µM
[27] = RPMI 5 mM glucose + 10% dialyzed FBS, 0.0632 µM
[28] = RPMI 5 mM glucose + 10% dialyzed FBS, 0.19 µM
[29] = RPMI 5 mM glucose + 10% dialyzed FBS, 0.569 µM
[30] = RPMI 5 mM glucose + 10% dialyzed FBS, 1.71 µM
[31] = RPMI 5 mM glucose + 10% dialyzed FBS, 5.12 µM
[32] = RPMI 5 mM glucose + 10% dialyzed FBS, 15.4 µM
[33] = RPMI 5 mM glucose + 10% dialyzed FBS, 46.1 µM

Row | SMILES | cell viability [1] [%] | cell viability [2] [%] | cell viability [3] [%] | cell viability [4] [%] | cell viability [5] [%] | cell viability [6] [%] | cell viability [7] [%] | cell viability [8] [%] | cell viability [9] [%] | cell viability [10] [%] | cell viability [11] [%] | cell viability [12] [%] | cell viability [13] [%] | cell viability [14] [%] | cell viability [15] [%] | cell viability [16] [%] | cell viability [17] [%] | cell viability [18] [%] | cell viability [19] [%] | cell viability [20] [%] | cell viability [21] [%] | cell viability [22] [%] | cell viability [23] [%] | cell viability [24] [%] | cell viability [25] [%] | cell viability [26] [%] | cell viability [27] [%] | cell viability [28] [%] | cell viability [29] [%] | cell viability [30] [%] | cell viability [31] [%] | cell viability [32] [%] | cell viability [33] [%]
1 | COc1ccccc1N1CCN(CC(O)COc2cccc3ccccc23)CC1 (configuration not stated) | 115 | 131 | 122 | 133 | 132 | 143 | 116 | 115 | 113 | 107 | 23.6 | – | – | – | – | – | – | – | – | – | – | – | – | – | – | – | – | – | – | – | – | – | –
2 | Cc1nc(C(=O)NCC(=O)O)c(O)c2ccc(Oc3ccccc3)cc12 | 99.4 | 105 | 95.7 | 87.2 | 94.5 | 104 | 86.6 | 94.9 | 84.5 | 102 | 92.5 | 106 | 113 | 113 | 119 | 113 | 116 | 104 | 101 | 118 | 97.4 | 107 | 84.4 | 85.3 | 108 | 105 | 116 | 98.2 | 96.2 | 94.9 | 82.2 | 104 | 99.4
3 | O=C1N\N=C(\C[C@@H]2CCN(C2)C(=O)C3CC3)N1C4=CC=C(C=C4)C5=CC=C6OC=CC6=C5 | 78.2 | 77.4 | 87.3 | 77.6 | 90 | 79.9 | 95.3 | 82.3 | 85.6 | 81.3 | 80.5 | 99.4 | 89 | 90.1 | 94.5 | 94.7 | 99 | 92 | 109 | 94.4 | 73.9 | 92.2 | 85.5 | 86.8 | 75.5 | 82.5 | 80.5 | 81.6 | 85.4 | 82.3 | 86 | 75.5 | 87.7
4 | COc1cc([C@@H]2c3cc4c(cc3[C@@H](O[C@@H]3O[C@@H]5CO[C@@H](C)O[C@H]5[C@H](O)[C@H]3O)[C@H]3COC(=O)[C@H]23)OCO4)cc(OC)c1O | 95.4 | 84.9 | 89.9 | 85.9 | 79.1 | 81.1 | 91.4 | 63 | 10.3 | 11.7 | 15.3 | 93.9 | 98.1 | 83.4 | 103 | 87.5 | 99.9 | 96.3 | 60.3 | 19.3 | 18.1 | 21.6 | 84.7 | 76.7 | 80.7 | 85.9 | 81.7 | 82.1 | 87.9 | 73.7 | 15.6 | 13.1 | 18.9
5 | COC(=O)[C@@H]1CC2=CC(=O)CC[C@]2(C)[C@@]23O[C@@H]2C[C@@]2(C)[C@@H](CC[C@@]24CCC(=O)O4)[C@H]13 | 95.3 | 91.4 | 112 | 106 | 104 | 110 | 116 | 105 | 109 | 102 | 112 | 93.6 | 115 | 107 | 121 | 116 | 133 | 122 | 136 | 124 | 123 | 119 | 105 | 121 | 113 | 121 | 110 | 108 | 123 | 141 | 125 | 116 | 120
6 | CN1C(=O)C(=C/2N(C(=O)N(C3CC3)C(=O)C2=C1/NC4=CC=C(I)C=C4F)C5=CC=CC(=C5)NC(C)=O)\C | – | – | – | – | – | – | – | – | – | – | – | 117 | 134 | 113 | 99.3 | 83.4 | 61.1 | 52.3 | 41.1 | 10.8 | 7.05 | 6.86 | 117 | 135 | 124 | 92.7 | 81 | 63.8 | 55.1 | 49.6 | 27.6 | 9.59 | 6.9
7 | NC(=O)c1ncn([C@@H]2O[C@H](CO)[C@@H](O)[C@H]2O)c1N | – | – | – | – | – | – | – | – | – | – | – | 127 | 111 | 96 | 136 | 111 | 121 | 123 | 123 | 126 | 115 | 83 | – | – | – | – | – | – | – | – | – | – | –
8 | CC1(C)CCC(=C(\C1)C2=CC=C(Cl)C=C2)/CN3CCN(CC3)C4=CC(=C(C=C4)C(=O)N[S+]([O-])(=O)C5=CC=C(NCC6CCOCC6)C(=C5)[N+]([O-])=O)OC7=CN=C8[NH]C=CC8=C7 | 93.7 | 84.4 | 99.3 | 89.4 | 85.4 | 76.2 | 61.3 | 62.7 | 63.2 | 43 | 33.6 | 103 | 110 | 95.8 | 91.9 | 113 | 71.8 | 63.2 | 55.3 | 55.1 | 45.8 | 39 | 97 | 95 | 96.2 | 76.7 | 66.4 | 57.7 | 49 | 38.2 | 42.9 | 28 | 23.9
9 | CN(C)c1ccccc1CN1CCCN(Cc2ccccc2N(C)C)C1c1ccncc1 | 86.4 | 82.7 | 89.2 | 18.6 | 89.4 | 88 | 91.1 | 81.3 | 83.5 | 89.7 | 74.5 | 93.7 | 103 | 91.6 | 29.8 | 113 | 115 | 108 | 110 | 99.9 | 95.7 | 65.7 | 77.3 | 88.7 | 90.6 | 33.3 | 93 | 99.6 | 93.7 | 97.7 | 95.4 | 95 | 65
10 | CC/C(=C(\c1ccccc1)c1ccc(OCCN(C)C)cc1)c1ccccc1 | 94.8 | 102 | 102 | 115 | 103 | 101 | 94.1 | 99 | 96.1 | 105 | 76.7 | 95 | 122 | 107 | 99.5 | 119 | 113 | 113 | 92.4 | 111 | 92.5 | 49.1 | 93.1 | 99.2 | 104 | 103 | 115 | 110 | 114 | 99.8 | 117 | 81 | 34.7
11 | CCCCCCCN(CC)CCCC(O)c1ccc(NS(C)(=O)=O)cc1.CCCCCCCN(CC)CCCC(O)c1ccc(NS(C)(=O)=O)cc1.O=C(O)/C=C/C(=O)O (configuration not stated) | 94.3 | 108 | 105 | 99.8 | 107 | 106 | 97.1 | 107 | 101 | 107 | 110 | 117 | 112 | 126 | 126 | 114 | 126 | 127 | 108 | 122 | 112 | 102 | 110 | 114 | 107 | 100 | 99.9 | 124 | 103 | 109 | 114 | 112 | 90.3
12 | O=C1CCc2cc(OCCCCc3nnnn3C3CCCCC3)ccc2N1 | 93 | 94.7 | 91.3 | 82.8 | 85.8 | 98.4 | 88.2 | 88.7 | 92.4 | 91.2 | 91.4 | 92.2 | 86.5 | 92.8 | 99.6 | 97.6 | 98.9 | 107 | 86 | 108 | 124 | 111 | 88.6 | 93 | 88.8 | 95.7 | 88 | 93.1 | 96.9 | 96.5 | 109 | 93.9 | 96
13 | CO[C@H]1C[C@H]2OC[C@@]2(OC(C)=O)[C@H]3[C@H](OC(=O)C4=CC=CC=C4)[C@]5(O)C[C@H](OC(=O)[C@H](O)[C@@H](NC(=O)OC(C)(C)C)C6=CC=CC=C6)/C(=C(/[C@@H](OC)C(=O)[C@]13C)C5(C)C)C | 68.2 | 79.6 | 86.1 | 14.6 | 10.7 | 13.3 | 11.9 | 12.6 | 14.9 | 11 | 4.22 | 75.9 | 46 | 28.5 | 25.8 | 19.6 | 19.9 | 19.3 | 18.8 | 27.7 | 19.9 | 7.15 | 64.3 | 81 | 82.7 | 19 | 14.9 | 13.8 | 13.7 | 13.7 | 17.5 | 16.8 | 7.39
14 | CN1C(=O)\C(=C/C2=C1N=C(NC3CCOCC3)N=C2)OC4=C(F)C=C(F)C=C4 | 95.4 | 83.2 | 88.4 | 90.6 | 94.1 | 87.2 | 87.2 | 95.2 | 79.2 | 84 | 23.3 | 105 | 107 | 105 | 101 | 119 | 100 | 91 | 96.4 | 58.2 | 89.2 | 16.4 | 86.7 | 97.1 | 104 | 89.2 | 83.5 | 87.1 | 95.5 | 91.4 | 76.7 | 86.3 | 26.4
15 | CNC(=O)c1ccccc1Sc1ccc2c(/C=C/c3ccccn3)n[nH]c2c1 | 108 | 116 | 107 | 115 | 118 | 105 | 112 | 91.5 | 74.8 | 68.8 | 84.2 | – | – | – | – | – | – | – | – | – | – | – | 103 | 119 | 123 | 109 | 104 | 100 | 107 | 74.9 | 74.8 | 68.8 | 67.9
16 | NC(=O)Cc1cccc(C(=O)c2ccccc2)c1N | 92.3 | 101 | 88.4 | 91.2 | 96.8 | 88 | 84.7 | 98.8 | 85.2 | 93.7 | 81.9 | 79.5 | 98.2 | 122 | 95.4 | 108 | 109 | 110 | 102 | 108 | 96.8 | 102 | 97.4 | 87.3 | 96.1 | 82.7 | 101 | 98.3 | 91.6 | 86.9 | 95.6 | 77.8 | 88.1
